Data reported in US20080300298A1, “Honokiol Derivates For the Treatment of Proliferative Disorders” (priority 2005, published 2008).
In brackets after ≈: the same amount, converted by molar mass.

Legend:
normal PBMNCs = test: cells; format: cell-based; conditions: Homo sapiens
Excerpt: Cells: Dexamethasone (Dex)-sensitive MM.1S (wild-type p53) and Dex-resistant MM.1R, RPMI 8226-Dox40 (doxorubicin resistant) and RPMI 8226-LR5 (melphalan resistant) human multiple myeloma (MM) cell lines were used. RPMI-8226 and U266 cells were obtained from the American Type Culture Collection (Rockville, Md.). SU-DHL-4 cells were also utilized. Fresh peripheral blood mononuclear cells (PBMNCs) were obtained from healthy subjects after informed consent. The PBMNC were separated from heparinized peripheral blood by Ficoll-Hipaque density sedimentation. BM specimens were acquired from patients with MM after obtaining informed consent and mononuclear cells were separated by Ficoll-Hipaque density sedimentation. […]
Reagents: Honokiol (HNK; Calbiochem, San Diego, Calif.) was dissolved in ethanol at 20 mg/ml stock solution. […] Absorbance readings at a wavelength of 450 nm were taken on a spectrophotometer (Molecular Devices Corp., Sunnyvale, Calif.).
HNK inhibits growth of MM cell lines. To identify the therapeutic potential of HNK, MM cell lines and normal PBMNCs were cultured at indicated concentration with HNK for 48 h, and growth was determined by calorimetric assays. […] FIGS. 6A and B show growth inhibition in MM cell lines by HNK as assessed by calorimetric assay after 48 h-culture. […]

lymph node cultures = test: antigen recall lymph node cultures from treated mice; format: in vivo, C57BL/6 or mCD40-LMP1 Tg mice; conditions: honokiol 3 mg/day, day 21-70 post-immunization
Procedure: Mice were assessed 70 days post-immunization with CII/CF or CFA only (or naïve). Some mice received honokiol (3 mg/day) from day 21-70 post-immunization.

With `C=CCc1ccc(O)c(-c2ccc(O)c(CC=C)c2)c1` [HNK, Honokiol] the IC50 (normal PBMNCs) was 40 to 80 µg/mL (≈ 150 to 300 µM) and the “proliferation and cytokine production of antigen recall lymph node cultures” value (lymph node cultures) was “decreased proliferation and IFN-g production, with unaltered IL-10 production”.
